In patent US5532372A, “Imide derivatives, and their production and use” (Sumitomo Pharmaceuticals Company, Ltd., priority 1990, dated 1996):
Read-outs that look alike come from different tables or passages of the source.

How the values were obtained:
[1] = tested on: mice; assay: Anti-climbing activity (in vivo), climbing behavior induced by apomorphine in mice; design: species or system mice (ddY strain male); settings: Mus musculus, 1 h, read-out: ED50 (50% suppressive dose) of climbing behavior
Description: (ii) Anti-climbing activity (in vivo)
This activity is examined through the anti-climbing behavior test, i.e. the test for suppressing the climbing behavior induced by apomorphine in mice.
A designed amount of the test compound is orally administered to several groups of ddY strain male mice (bodyweight, 20 to 25 g; one group, 5 mice), and each of the animals is placed in an individual column cage of 12 cm in diameter and 14 cm in height having metal poles (each pole, 2 mm in diameter) vertically installed and arranged along the periphery with intervals of 1 cm. After 60 minutes, apomorphine (1.0 mg/kg) is subcutaneously injected, and the behavior is observed during 10 to 20 minutes.
0 All the paws are on the floor
1 only forepaws seize the pole of the cage
2 All the paws seize the pole of the cage;
climbing behavior observed discontinuously
3 Continuous climbing behavior observed

[2] = target: T1, dopamine D2 receptor (Rattus norvegicus, UniProt P61169); assay: Dopamine D2 receptor binding assay (in vitro), [3H] raclopride; settings: at the concentration of 0.01 μM; Table 3; read-out: Antipsychotic activity (% inhibition), inhibition of [3H] raclopride binding to D2 receptors
T1 construct: from tissue; host or cells: rat corpus striatum, membrane fractions

[3] = in vivo; settings: mouse, po
[4] = Catalepsy inducing activity (extrapyramidal side-effect); design: species or system male mice; settings: mouse, in vivo; oral, one hour later, mice; Table 5
Description: A designated amount of the test compounds is orally administered to male mice, and one hour later a pair of forepaws are forcedly hanged on an iron pipe (diameter, 2.5 mm) horizontally set at a height of 5 cm. At least one cataleptic state of more than 30 second per three trials is regarded as positive.

[5] = oral, 60 minutes before apomorphine (1.0 mg/kg s.c.), mice, Table 4

T1 sequence (P61169 whole entry): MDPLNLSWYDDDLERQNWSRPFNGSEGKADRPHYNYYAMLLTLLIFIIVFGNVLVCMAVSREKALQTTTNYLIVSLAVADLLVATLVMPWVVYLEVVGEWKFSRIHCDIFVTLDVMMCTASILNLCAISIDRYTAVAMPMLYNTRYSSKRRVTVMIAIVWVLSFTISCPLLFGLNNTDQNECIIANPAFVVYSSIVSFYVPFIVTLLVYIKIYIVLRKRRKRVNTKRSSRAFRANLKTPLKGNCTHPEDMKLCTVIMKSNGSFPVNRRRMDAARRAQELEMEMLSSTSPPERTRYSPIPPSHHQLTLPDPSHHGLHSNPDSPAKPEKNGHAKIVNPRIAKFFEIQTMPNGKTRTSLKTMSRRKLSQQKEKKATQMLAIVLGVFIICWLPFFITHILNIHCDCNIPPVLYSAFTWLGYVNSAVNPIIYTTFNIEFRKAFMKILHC

Work on `O=C1[C@H]2CCCC[C@H]2C(=O)N1C[C@@H]1C[C@H]1CN1CCN(c2nsc3ccccc23)CC1` (relative stereo) [Compound No. 107] yielded an ED50 [1, 5] of 26.5 mg/kg and an inhibition at 0.01 µM [2] of 71%.

In the case of `O=C(CCCN1CCC(O)(c2ccc(Cl)cc2)CC1)c1ccc(F)cc1` [Haloperidol, reference compound], the ED50 at 1 h [3] is reported as 4.1 mg/kg, the ED50 [1, 5] is reported as 0.67 mg/kg and the ED50 at 1 h [4] is reported as 3.1 mg/kg.

`O=C1[C@@H]2[C@H]3CC[C@H](C3)[C@@H]2C(=O)N1C1CCCC(CN2CCN(c3nsc4ccccc34)CC2)C1` (stereo partly shown) [Compound No. 106] gave an inhibition at 0.01 µM [2] of 90%.

In the case of `O=C(c1ccc(F)cc1)C1CCN(C[C@@H]2C[C@H]2CN2C(=O)[C@H]3CCCC[C@H]3C2=O)CC1` (relative stereo) [compound 161], the inhibition at 0.01 µM [2] is reported as 24%.

`O=C1[C@@H]2[C@H]3CC[C@H](C3)[C@@H]2C(=O)N1C[C@@H]1C[C@H]1CN1CCN(c2ncccn2)CC1` (relative stereo) [compound 163] showed an inhibition at 0.01 µM [2] of 11%.

Compound `O=C1[C@@H]2[C@H]3CC[C@H](C3)[C@@H]2C(=O)N1C[C@@H]1CCCC[C@H]1CN1CCN(c2nsc3ccccc23)CC1` (relative stereo) [Compound No. 101] has an ED50 at 1 h [3] of over 1000 mg/kg, an ED50 [1, 5] of 10.3 mg/kg and an ED50 at 1 h [4] of 747 mg/kg.

`CN(C)CCCN1c2ccccc2Sc2ccc(Cl)cc21` [Chlorpromazine, reference compound] showed an ED50 ([1]; po) of 4.2 mg/kg and an ED50 at 1 h [4] of 18 mg/kg.
